In assay [1] the test system is A549. Nature of the assay: cells. The format is functional, cell-based. Particulars: Homo sapiens, A549, 24 h.
Description: Anticancer activity against human A549 cells assessed as cell growth inhibition measured after 24 hrs by MTT assay
For assay [2], the system named is MCF7. Nature of the assay: cells. The format is functional, cell-based. Particulars: Homo sapiens, MCF7, 24 h.
Description: Anticancer activity against human MCF7 cells assessed as cell growth inhibition measured after 24 hrs by MTT assay
Assay [3] has as its system HepG2. The assay is described as follows: cells. Particulars: Homo sapiens, HepG2, 24 h. Format: functional, cell-based.
Description: Anticancer activity against human HepG2 cells assessed as cell growth inhibition measured after 24 hrs by MTT assay
The test system of assay [4] is PC-3. Nature of the assay: cells. Format: functional, cell-based. Particulars: Homo sapiens, PC-3, 24 h.
Description: Anticancer activity against human PC-3 cells assessed as cell growth inhibition measured after 24 hrs by MTT assay
Assay [5] relates to HEK293. Nature of the assay: cells. Particulars: Homo sapiens, HEK293, 24 h. The format is ADME, cell-based.
Description: Cytotoxicity against HEK293 cells assessed as cell growth inhibition measured after 24 hrs by MTT assay
Assay [6] deals with MDA-MB-231. Nature of the assay: cells. The format is functional, cell-based. Particulars: Homo sapiens, MDA-MB-231, 24 h.
Description: Anticancer activity against human MDA-MB-231 cells assessed as cell growth inhibition measured after 24 hrs by MTT assay
In assay [7] the test system is DU-145. The assay is described as follows: cells. Format: functional, cell-based. Particulars: Homo sapiens, DU-145, 24 h.
Description: Anticancer activity against human DU-145 cells assessed as cell growth inhibition measured after 24 hrs by MTT assay
For assay [8], the system named is DLD-1. Nature of the assay: cells. The format is functional, cell-based. Particulars: Homo sapiens, DLD-1, 24 h.
Description: Anticancer activity against human DLD-1 cells assessed as cell growth inhibition measured after 24 hrs by MTT assay
Assay [9] relates to MDA-MB-231. The assay is described as follows: Induction of mitochondrial membrane depolarization in human MDA-MB-231 cells at 10 uM measured after 24 hrs by JC-1 staining based flow cytometry analysis (reference value: 0.89 to 3.24 %). The format is functional. A general note: Flow cytometry measures light scatter and fluorescence of single cells or particles in a stream.
For assay [10], the system named is DNA. Nature of the assay: Binding affinity to DNA (unknown origin) at 0.1 to 0.2 mM by agarose gel electrophoresis. The format is nucleic-acid assay. Particulars: dose mM 0.1-0.2.
Assay [11] deals with Tubulin (Homo sapiens) (UniProt P68371+Q9H4B7+P0DPH7+P68366+Q13509+Q71U36+P04350+Q3ZCM7+P07437+P68363+Q9BQE3+Q6PEY2+Q13885+Q9BVA1+Q9BUF5). Nature of the assay: Inhibition of tubulin (unknown origin) polymerization assessed as stabilization of microtubules at10 uM measured up to 60 mins in presence of GTP. Format: protein-complex assay. Particulars: dose 10.0 µM, time min <=60.

Counter-ions that a name gives are not always drawn. The source made the active and inactive calls. The rule behind the calls is not given here.

What is called IC50 is the midpoint of a concentration-inhibition curve. Higher therefore signals lower potency. As for `COc1ccc2c(c1)c1cc(C)c3c(c1n2Cc1ccccc1Br)C=CC(C)(C)O3`, the concentration for half-maximal inhibition (IC50) is 56.5 µM in assay [1]; 59.1 µM in assay [2]; 16 µM in assay [3]; 15.2 µM in [4]; greater than 100 µM in assay [5]; greater than 100 µM in assay [6]. In addition, the 50% inhibitory concentration (IC50) in assay [7] and in assay [8] was greater than 100 µM each time.

On to `C=CCn1c2cc(OC)c(OC)cc2c2cc(C)c3c(c21)C=CC(C)(C)O3`, for which the IC50 in assay [1] is greater than 100 µM; in [2], greater than 100 µM; in assay [3], 42.9 µM; in assay [4] it was greater than 100 µM; in assay [5], greater than 100 µM; in [6], 36.5 µM. The concentration for half-maximal inhibition (IC50) in assay [7] was greater than 100 µM; in [8] it was 75.3 µM.

With `COc1ccc2[nH]c3c4c(c(C=O)cc3c2c1)OC(C)(C)C=C4` [CLAULANSINE F], the IC50 in assay [1] was greater than 100 µM; in [2], 3.9 µM; in assay [3], 33.3 µM; in assay [4], 56.4 µM; in assay [5], 2.5 µM; in assay [6] it was 2.6 µM. Further, the results for the IC50 in [7] and in assay [8] were greater than 100 µM and 54.7 µM, respectively.

Regarding `COc1ccc2c(c1)c1cc(C=O)c3c(c1n2Cc1ccccc1)C=CC(C)(C)O3`, the IC50 in assay [1] was 36.6 µM; in [2], 32.8 µM; in [3] it was 42.4 µM; in assay [4], 32.9 µM; in assay [6], 30.7 µM; in [7] it was greater than 100 µM. This compound yielded a 50% inhibitory concentration (IC50) in assay [8] greater than 100 µM.

Consider `COc1cc2c3cc(C)c4c(c3n(Cc3cccc(C)c3)c2cc1OC)C=CC(C)(C)O4`, for which the IC50 in [1] is 96.6 µM; in [2] it was 64.9 µM; in assay [3], 9.6 µM; in [4], 14.1 µM; in assay [5] it was greater than 100 µM; in [6] it was 28 µM. The IC50 is greater than 100 µM in assay [7] and 73.4 µM in assay [8].

As to `COc1cccc(Cn2c3cc(OC)c(OC)cc3c3cc(C)c4c(c32)C=CC(C)(C)O4)c1`, the half-inhibitory concentration (IC50) is 29.1 µM in assay [1]; 65.6 µM in assay [2]; 41.8 µM in assay [3]; 20 µM in assay [4]; 33.4 µM in [6]; greater than 100 µM in assay [7]. The compound also gave an IC50 in assay [8] of 56.1 µM.

Take `COc1ccc2c(c1)c1cc(C)c3c(c1n2Cc1cc(F)ccc1F)C=CC(C)(C)O3`: the half-inhibitory concentration (IC50) is 53.3 µM in [1]; 51.8 µM in [2]; 9.1 µM in [3]; 33.1 µM in assay [4]; greater than 100 µM in [5]; greater than 100 µM in [6]. In addition, the values for the IC50 in [7] and in assay [8] were greater than 100 µM and 54.2 µM, respectively.

As to `COc1ccc2c(c1)c1cc(C)c3c(c1n2Cc1ccccc1)C=CC(C)(C)O3`, the 50% inhibitory concentration (IC50) in assay [1] is 64 µM; in assay [2], greater than 100 µM; in assay [3], 41.8 µM; in [4], 74.9 µM; in [5], greater than 100 µM; in assay [6] it was 46.5 µM. The values for the IC50 in [7] and in assay [8] were greater than 100 µM and 52.8 µM, respectively.

`COc1ccc2c(c1)c1cc(C)c3c(c1n2Cc1cccc(C)c1)C=CC(C)(C)O3`: the concentration for half-maximal inhibition (IC50) is 35.7 µM in [1]; 48.2 µM in assay [2]; 34.6 µM in [3]; 35.5 µM in [4]; greater than 100 µM in assay [5]; 46.5 µM in [6]. Moreover, the half-maximal inhibitory concentration (IC50) was determined as 55.7 µM in assay [7] and 73.1 µM in assay [8].

For the compound `COc1cccc(Cn2c3cc(OC)c(OC)cc3c3cc(C=O)c4c(c32)C=CC(C)(C)O4)c1`, the IC50 is greater than 100 µM in [1]; greater than 100 µM in [2]; greater than 100 µM in assay [3]; 77.2 µM in [4]; greater than 100 µM in assay [6]; greater than 100 µM in [7]. Further, the IC50 in [8] is greater than 100 µM.

Take `COc1cc2c3cc(C)c4c(c3n(Cc3ccccc3Br)c2cc1OC)C=CC(C)(C)O4`: the half-maximal inhibitory concentration (IC50) in assay [1] was 24.4 µM; in [2], 70.7 µM; in assay [3] it was 8.2 µM; in assay [4], 9.3 µM; in assay [5], greater than 100 µM; in assay [6], 36.7 µM. Moreover, the values for the IC50 in assay [7] and in assay [8] were 36.6 µM and 35.9 µM, respectively.

As for `COc1cc2c3cc(C)c4c(c3n(Cc3cc(Cl)ccc3Cl)c2cc1OC)C=CC(C)(C)O4`, the IC50 in assay [1] was 14.8 µM; in [2], 29.4 µM; in [3] it was 33.8 µM; in assay [4], 7.4 µM; in [6], 19.7 µM; in assay [7], greater than 100 µM. For the same compound, the IC50 in [8] stood at 35.4 µM.

In the case of `C#CCn1c2cc(OC)c(OC)cc2c2cc(C)c3c(c21)C=CC(C)(C)O3`, the IC50 in [1] is 51.5 µM; in [2], greater than 100 µM; in assay [3], 38.8 µM; in [4], 76.1 µM; in assay [5], greater than 100 µM; in [6], 9.7 µM. Also, the IC50 in [7] and in [8] was greater than 100 µM in each case.

With `CC/C(=C(\c1ccccc1)c1ccc(OCCN(C)C)cc1)c1ccccc1` [TAMOXIFEN CITRATE], the half-maximal inhibitory concentration (IC50) in assay [2] is 6.2 µM; in [4] it was 11.7 µM; in [5], 27.3 µM; in assay [6], 12.8 µM; in [7], 11.2 µM.

For the compound `COc1cc2c3cc(C=O)c4c(c3n(Cc3cccc(Cl)c3)c2cc1OC)C=CC(C)(C)O4`, the IC50 is greater than 100 µM in assay [1]; 72.4 µM in assay [2]; greater than 100 µM in assay [3]; 70.5 µM in assay [4]; greater than 100 µM in assay [6]; greater than 100 µM in assay [7]. In [8], this compound showed a 50% inhibitory concentration (IC50) greater than 100 µM.

Turning to `COc1ccc2c(c1)c1cc(C)c3c(c1n2Cc1ccc(F)cc1F)C=CC(C)(C)O3`, the IC50 is 88 µM in assay [1]; greater than 100 µM in [2]; 36.8 µM in [3]; 13.3 µM in [4]; greater than 100 µM in [5]; 23.2 µM in [6]. In addition, the values for the IC50 in assay [7] and in [8] were greater than 100 µM and 34.1 µM, respectively.

Take `N#CC(C#N)=NNc1cccc(Cl)c1` [CARBONYL CYANIDE M-CHLOROPHENYLHYDRAZONE]: the Activity in [9] is listed as 12.75%.

As to `C#CCn1c2ccc(OC)cc2c2cc(C)c3c(c21)C=CC(C)(C)O3`, the IC50 in assay [1] is greater than 100 µM; in [2], greater than 100 µM; in assay [3], greater than 100 µM; in assay [4], greater than 100 µM; in [5], greater than 100 µM; in [6] it was 52.4 µM. For the same compound, the half-inhibitory concentration (IC50) in [7] is greater than 100 µM; in [8], 50.1 µM.

In the case of `COc1cccc2c1C(=O)c1c(O)c3c(c(O)c1C2=O)C[C@@](O)(C(=O)CO)C[C@@H]3O[C@H]1C[C@H](N)[C@H](O)[C@H](C)O1` [DOXORUBICIN], the result in [10] was Active. Besides, the values for the half-maximal inhibitory concentration (IC50) in assay [3] and in assay [8] were 8 µM and 10.2 µM, respectively.

Regarding `COc1cc2c3cc(C)c4c(c3n(Cc3ccccc3)c2cc1OC)C=CC(C)(C)O4`, the IC50 in [1] is 80.1 µM; in [2], 71.9 µM; in assay [3] it was 47.1 µM; in [4], 29.2 µM; in [5], greater than 100 µM; in assay [6] it was 28.5 µM. Further, the half-inhibitory concentration (IC50) in [7] was greater than 100 µM; in assay [8] it was 42.1 µM.

On to `COc1cc2[nH]c3c4c(c(C=O)cc3c2cc1OC)OC(C)(C)C=C4`, for which the 50% inhibitory concentration (IC50) in [1] was 33.6 µM; in assay [2], greater than 100 µM; in [3] it was 35.5 µM; in assay [4], 27.3 µM; in assay [5], greater than 100 µM; in [6] it was 8.3 µM. Further, the values for the 50% inhibitory concentration (IC50) in [7] and in assay [8] were 70 µM and greater than 100 µM, respectively.

Regarding `COc1cc2c3cc(C)c4c(c3n(C/C(I)=C\I)c2cc1OC)C=CC(C)(C)O4`, the IC50 was 71.7 µM in assay [1]; 44.9 µM in [2]; 15.5 µM in [3]; 9.6 µM in [4]; greater than 100 µM in assay [5]; 4.4 µM in assay [6]. For the same compound, the concentration for half-maximal inhibition (IC50) in assay [7] was determined as 47.6 µM; in [8] it was 8.5 µM.

For `CC(=O)O[C@H]1C(=O)[C@@]2(C)[C@H]([C@H](OC(=O)c3ccccc3)[C@]3(O)C[C@H](OC(=O)[C@H](O)[C@@H](NC(=O)c4ccccc4)c4ccccc4)C(C)=C1C3(C)C)[C@]1(OC(C)=O)CO[C@@H]1C[C@@H]2O`, in assay [11], the outcome was Active.
